This note sets out measurements from article PMC10932281, “A Combination of β-Aescin and Newly Synthesized Alkylamidobetaines as Modern Components Eradicating the Biofilms of Multidrug-Resistant Clinical Strains of Candida glabrata” (International Journal of Molecular Sciences, 2024).

Converted amounts (≈) assume the structure as drawn. Like-named read-outs stand apart in the source and are kept apart here. A value given as a limit tells only on which side of the number the result lay.

The subject of series [1] is C. glabrata 2853. Put plainly: Interaction of AABs (3 µM) with antifungal agents, modified checkerboard. The format is cell-based, Candida glabrata.
The subject of series [2] is C. glabrata 2586. Kind of series: FICI checkerboard, β-aescin with antifungal drugs. To be noted: for FICI: combination with β-aescin. The format is cell-based, Candida glabrata.
The subject of series [3] is C. glabrata strains (ATCC 90030, 2586, 2853). Kind of series: Interaction of AABs with antifungal agents, statements for all tested strains together. The format is cell-based, Candida glabrata. To be noted: all the tested strains.
Series [4] concerns C. glabrata ATCC 90030. Put plainly: MIC90/MFC, EUCAST broth microdilution. The format is cell-based, Candida glabrata. To be noted: ATCC 90030. In general terms: Broth dilution looks for growth in wells or tubes with falling amounts of substance.
Series [5] has as its system C. glabrata 2586. Kind of series: Interaction of AABs (3 µM) with antifungal agents, modified checkerboard. The format is cell-based, Candida glabrata.
The subject of series [6] is C. glabrata 2853. Kind of series: FICI checkerboard, β-aescin with antifungal drugs. The format is cell-based, Candida glabrata. To be noted: combination with β-aescin.
The subject of series [7] is C. glabrata strains (ATCC 90030, 2586, 2853). Put plainly: MIC, statements for all tested strains together. The format is cell-based, Candida glabrata.
Series [8] concerns C. glabrata 2853 clinical strain. Kind of series: MIC90/MFC, EUCAST broth microdilution. The format is cell-based, Candida glabrata.
Series [9] concerns C. glabrata ATCC 90030. Kind of series: Interaction of AABs (3 µM) with antifungal agents, modified checkerboard. The format is cell-based, Candida glabrata.
The subject of series [10] is C. glabrata 2586 clinical strain. Kind of series: MIC90/MFC, EUCAST broth microdilution. The format is cell-based, Candida glabrata.
Series [11] has as its system C. glabrata ATCC 90030. Kind of series: FICI checkerboard, β-aescin with antifungal drugs. The format is cell-based, Candida glabrata. To be noted: combination with β-aescin.
Series [12] deals with C. glabrata ATCC 90030 biofilm. Kind of series: Biofilm eradication on polystyrene, fluorescence microscopy (Syto9/PI). The format is cell-based, Candida glabrata. To be noted: Nakaseomyces glabratus, ATCC90030, 72 h, read-out: Biofilm Viability [%] 90030 Live; for viability at 1 µM: AAB alone 1 μM; for viability at 2 µM: AAB alone 2 μM; for viability at 3 µM: AAB alone 3 μM. How it is done:
(§1) C. glabrata biofilm eradication on polystyrene surfaces was assessed according to the following procedure: 1 mL of C. glabrata culture, 10^6 CFU/mL in RMPI 1640 MOPS-buffered medium, was pipetted into the wells of a 48-well adherent plate. Cultures were incubated at 37 °C for 72 h with shaking (400 RPM). […] Non-treated cells were used as the control. This experiment was carried out in triplicate. The analysis of the biofilm eradication of C. glabrata strains on polystyrene surfaces was performed using fluorescence microscopy (FM). For further information, see Section 4.12. below.
(§2) The 72 h biofilm of C. glabrata strains on polystyrene surfaces was stained on 48-well adherent plates with 1 µL of propidium iodide (Ex λ = 543 nm/Em λ = 617 nm) and 1 µL of SYTO9 (Ex λ = 488 nm/Em λ = 503 nm) for 30 min using a LIVE/DEAD BacLight Bacterial Viability Kit (Thermo Fisher Scientific, Waltham, MA USA). Imaging was performed using a fluorescence microscope (FM) BX51 (Olympus, Tokyo, Japan) equipped with an Orca Flash 40 camera (Hamamatsu, Hamamatsu City, Japan) and 10× objective Plan APO. Scale bar = 100 µm. Detailed computer qualitative and quantitative analyses of the obtained pictures were performed by estimating the coverage area on the polystyrene plate (the percentage of the area occupied by the fungal biofilm). The cell viability analysis was performed by calculating the fluorescence intensity of the dyes (Syto9/PI) used. The acquired images were processed and analyzed using Fiji/ImageJ software ver. 1.53c (NIH, Bethesda, MD, USA). First, maximum intensity projections (MIPs) were obtained from stacks of images. The areas of the binary images were transferred into the original live and dead channel MIP images. The mean fluorescence intensities of all detected objects per field of view were calculated using ImageJ’s Analyze Threshold function (Software: ImageJ version 1.53 from Softonic).

The subject of series [13] is C. glabrata 2853 biofilm. Described as above. The format is cell-based, Candida glabrata. To be noted: Nakaseomyces glabratus, 2853BIOFILM, 72 h, read-out: Biofilm Viability [%] 2853 Live; for viability at 1 µM: AAB alone 1 μM; for viability at 2 µM: AAB alone 2 μM; for viability at 3 µM: AAB alone 3 μM. How it is done:
as §1, §2

Series [14] deals with C. glabrata 2586 biofilm. Described as above. The format is cell-based, Candida glabrata. To be noted: Nakaseomyces glabratus, 2586BIOFILM, 72 h, read-out: Biofilm Viability [%] 2586 Live; for viability at 1 µM: AAB alone 1 μM; for viability at 2 µM: AAB alone 2 μM; for viability at 3 µM: AAB alone 3 μM. How it is done: as §1, §2
Series [15] in a line: Krafft temperature (TK). The format is physicochemical. The procedure: CHNS elemental analysis was carried out by a Vario EL cube (Elementar, Germany) calibrated on acetanilide. Electrospray ionization mass spectroscopy (ESI-MS) (micrOTOF-Q instrument; Bruker Daltonics, Germany) allowed for the MS spectra to be obtained. The ESI-MS instrument was operated in the positive ion mode and calibrated with the Tunemix^TM mixture (Bruker Daltonics, Germany). The mass accuracy was better than 5 ppm. The obtained mass spectra were analyzed using DataAnalysis 3.4 software (Bruker Daltonics, Germany). ^1H NMR spectra were recorded on a Bruker AMX-500 spectrometer, using CDCl3 as a solvent. ^1H chemical shifts (in ppm) were calibrated to TMS as an internal reference. Melting points were determined using a Boetius melting point apparatus, while Krafft temperatures were determined according to the directions given in [47]. CMC is the minimum concentration above which micelles are formed in aqueous liquid. To obtain the CMC values, we used McGowan’s model. […] Molecular characteristic volumes (Vx) are found by the addition of the atomic characteristic volumes and the subtraction for the same factory (6.56 × 10^−6 m^3 mol^−1) for every covalent bond.

The subject of series [16] is Balb/3T3 mouse embryonic fibroblasts. Kind of series: Cell proliferation assay (MTT test). The format is cell-based. To be noted: 24 h. How it is done:
Balb/3T3 (ATCC CCL-163) mouse embryonic fibroblasts were cultured in DMEM medium supplemented with 10% fetal bovine serum, 1 mM L-glutamine, and a 1% penicillin/streptomycin solution and were used for our cytotoxicity studies. The cells were cultured at 37 °C and 5% CO2 until the cell density of 10^6 mL^−1 was obtained. Such cells were then seeded in 24-well tissue microplates (2 × 10^4 cells per well) and allowed to adhere overnight under the abovementioned conditions. Cytotoxicity tests were carried out on the cells prepared in this way.
The newly synthesized AABs (C9, C11, C13, and C15) were selected based on previous studies. They were analyzed at the concentrations of 0.25, 0.5, 1, 2, and 3 µM. […] The BALB-3T3 cells were treated with the prepared mixtures, dissolved in a complete cell culture medium, and then incubated for 24 h under the abovementioned conditions. Three independent replicates were performed for each combination of compounds.
The cytotoxic effect of the tested compounds in combination with β-AE was evaluated by measuring mitochondrial dehydrogenase activity using the MTT assay. After a 24 h incubation period, the medium supplemented with the 1mM MTT solution was added to each well. The cultures were continued for another 4 h under the conditions enriched with 5% CO2. After this time, the supernatant was collected, and MTT formazan was extracted from the cells using DMSO. The reaction was then stopped with Sörensen buffer (0.1 mol/L glycine; 0.1 mol/L NaCl; and pH 10.5). The percentage of cytotoxicity was calculated by comparing the absorbance values (λ = 560 nm) of the test sample to the control sample, which was untreated fibroblast cells. In the test performed, the negative control (C−) (sample not treated; PBS added) and positive control (C+) were fibroblast cells treated with 1% SDS [60].
Background: Tetrazolium assays rely on reduction of a dye to a coloured formazan, in cell work by metabolically active cells.

[17] abbreviates: C9 at constant 3 µM, dilutions in µg/mL.
Setting [18] is: C11 at constant 3 µM, dilutions in µg/mL.
[19] abbreviates: C13 at constant 3 µM, dilutions in µg/mL.
Where [20] appears, read: C15 at constant 3 µM, dilutions in µg/mL.
The mark [21] stands for this setting: Nakaseomyces glabratus, read-out: MFC.
[22] abbreviates: Nakaseomyces glabratus, read-out: MIC90.
The mark [23] stands for this setting: Nakaseomyces glabratus, ATCC90030, all the tested C. glabrata strains, AAB alone, read-out: MIC converted to.
[24] abbreviates: all the tested C. glabrata strains, AAB alone.

Regarding `C[C@@H]1[C@H](O)[C@@H](C)/C=C/C=C/C=C/C=C/C=C/C=C/C=C/[C@H](O[C@@H]2O[C@H](C)[C@@H](O)[C@H](N)[C@@H]2O)C[C@@H]2O[C@](O)(C[C@@H](O)C[C@@H](O)[C@H](O)CC[C@@H](O)C[C@@H](O)CC(=O)O[C@H]1C)C[C@H](O)[C@H]2C(=O)O` [Amphotericin B], the “Multiplicity factor (MF) with C9” value in series [1] (C9 3 µM) is on record as 1; in series [5] (C9 3 µM), 2; in series [9] (C9 3 µM, |MF| = MIC90 alone/MIC90 with AAB) it was 1. In addition, the “MIC90 of antimycotic combined with C9” value in [1] (setting [17]) is 0.25; in series [5] (setting [17]), 0.12; in [9] (setting [17]) it was 0.25. Moreover, the “Multiplicity factor (MF) with C11” value in series [1] (C11 3 µM), in series [5] (C11 3 µM) and in series [9] (C11 3 µM) was 2 in each case. The “MIC90 of antimycotic combined with C11” value in series [1] (setting [18]), in [5] (setting [18]) and in [9] (setting [18]) was 0.12 each time. Also, the “Multiplicity factor (MF) with C13” value in series [1] (C13 3 µM), in series [5] (C13 3 µM) and in series [9] (C13 3 µM) was 2 each time. Also, the “MIC90 of antimycotic combined with C13” value in [1] (setting [19]), in [5] (setting [19]) and in series [9] (setting [19]) was 0.12 in each case. Further, the “Multiplicity factor (MF) with C15” value in [1] (C15 3 µM), in series [5] (C15 3 µM) and in series [9] (C15 3 µM) was 4 each time. The “MIC90 of antimycotic combined with C15” value in [1] (setting [20]), in series [5] (setting [20]) and in series [9] (setting [20]) was 0.06 throughout. In series [2], the “Type of interaction with β-AE (by FICI)” value is recorded as “additive”. For the same molecule, the FICI is on record as 1 in [2], 1.0 in series [2] (listed as amphotericin B), 2.5 in series [6] and 1.5 in [11]. In addition, the “Fold increase of activity with C11” value in series [3] (C11 3 µM) is 2 fold. The “Fold increase of activity with C13” value in series [3] (C13 3 µM) was determined as 2 fold. Also, the “Fold increase of activity with C15” value in series [3] (C15 3 µM) came to 4 fold. For the same molecule, the MFC (in general, the smallest concentration meeting the test's criterion for killing the fungus) in series [4] (Nakaseomyces glabratus, ATCC90030, read-out: MFC) was determined as 0.5 mg/L (≈ 0.541 µM); in [8] (setting [21]) it was 0.5 mg/L (≈ 0.541 µM); in series [10] (setting [21]), 1 mg/L (≈ 1.08 µM). For the same molecule, the MIC90 is 0.25 mg/L (≈ 0.271 µM) in [4] (Nakaseomyces glabratus, ATCC90030, read-out: MIC90); 0.25 mg/L (≈ 0.271 µM) in series [8] (setting [22]); 0.25 mg/L (≈ 0.271 µM) in series [10] (setting [22]). For the same molecule, the MIC in [7] (Nakaseomyces glabratus, ATCC90030) stood at 0.25 mg/L (≈ 0.271 µM).

With `CCCCCCCCCCCC(=O)N(C)CCC[N+](C)(C)CC(=O)[O-]` [C11], the viability (as a rule, a per cent measure of how many cells are alive, often set against a control) at 1 µM in series [12] came to 32.6%; in series [13], 37.2%; in series [14] it was 4.54%. Further, the values for the viability at 2 µM in [12], in series [13] and in series [14] were 3.96%, 3.06% and 4.45%, respectively. Besides, the viability at 3 µM in series [12] was 2.14%; in series [13] it was 7.34%; in [14], 3.49%. In addition, the “TK (Krafft temperature)” value in series [15] was around 5 °C. The MIC90 in series [4] (AAB alone), in series [8] (AAB alone) and in series [10] (AAB alone) was above 3 µM/mL throughout. Also, the MIC in [7] (setting [23]) is 1070 mg/L (≈ 3000 µM); in [7] (setting [24]), 3 µM/mL. The Cytotoxicity level in [16] (1 µm/mL) was found to be 85%.

Regarding `CCCCCCCCCCCCCC(=O)N(C)CCC[N+](C)(C)CC(=O)[O-]` [C13], the viability at 1 µM in [12] came to 1.96%; in [13] it was 11.6%; in [14], 4.56%. Further, the figures for the viability at 2 µM in series [12], in [13] and in [14] were 6.55%, 4.98% and 4.57%, respectively. Further, the viability at 3 µM stood at 2.26% in series [12], 14.2% in series [13] and 12.9% in series [14]. Moreover, the “TK (Krafft temperature)” value in series [15] came to 20.5 °C. Further, the MIC90 in series [4] (AAB alone), in series [8] (AAB alone) and in series [10] (AAB alone) was above 3 µM/mL throughout. In addition, the MIC came out at 1150 mg/L (≈ 3000 µM) in series [7] (setting [23]) and 3 µM/mL in series [7] (setting [24]). Further, the Cytotoxicity level in [16] (2 µM/mL) is given as 85%.
